Experimental data taken from patent US20230085307A1, “PYRIDAZINONE COMPOUND AND HERBICIDE” (NISSAN CHEMICAL CORPORATION, priority 2019, published 2023).

Tests used:
wild oat [1] = assay: Test Example 5: herbicidal effect by foliage application, plastic box (Table 20, symbol I); format: in vivo, wild oat (Avena fatua)
Outline: (§1)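 Foliar spray test: emulsion formulation diluted in water to a set application rate, sprayed onto 14-day-old plants raised in diluvial soil at 25° C to 30° C under glass. Both herbicidal effect and crop effect rated visually three weeks later.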

barnyard grass [2] = assay: Test Example 5: herbicidal effect by foliage application, plastic box (Table 20, symbol H); format: in vivo, barnyard grass (Echinochloa crus-galli)
Outline: as §1

redroot pigweed [3] = assay: Test Example 5: herbicidal effect by foliage application, plastic box (Table 20, symbol N); format: in vivo, redroot pigweed (Amaranthus retroflexus); settings: amount of applied herbicide 320 g/ha; foliage application after 14-day growth; evaluated three weeks after application
Outline: as §1

southern crabgrass [4] = assay: Test Example 4: herbicidal effect by soil treatment (Table 19, symbol F); format: in vivo, southern crabgrass (Digitaria ciliaris); settings: amount of applied herbicide 320 g/ha
Outline: (§2)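 Herbicidal effect was rated 3 weeks after treatment, using the scoring criteria of an earlier test. The compound, formulated as an emulsion and diluted in water to a set herbicide amount, had been sprayed uniformly on soil over freshly sown seeds. Growth took place in a greenhouse at 25° C. to 30° C.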

chickweed [5] = assay: Test Example 4: herbicidal effect by soil treatment (Table 19, symbol P); format: in vivo, common chickweed (Stellaria media); settings: amount of applied herbicide 320 g/ha
Outline: as §2

Italian ryegrass [6] = assay: Test Example 4: herbicidal effect by soil treatment (Table 19, symbol K); format: in vivo, Italian ryegrass (Lolium multiflorum); settings: amount of applied herbicide 320 g/ha
Outline: as §2

persian speedwell [7] = assay: Test Example 5: herbicidal effect by foliage application, plastic box (Table 20, symbol R); format: in vivo, Persian speedwell (Veronica persica)
Outline: as §1

barnyard grass [8] = assay: Test Example 3: herbicidal effect by foliage application, Wagner pot (Table 18, symbol H); format: in vivo, barnyard grass (Echinochloa crus-galli)
Outline: (§3)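 Plants were sown in alluvial soil held under 0.1–0.5 cm standing water and grown 14 days in a greenhouse at 25–30 °C. An emulsifiable formulation, water-diluted to the set dose, was then sprayed onto the foliage, and effects were scored three weeks later using previously defined criteria.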

chickweed [9] = assay: Test Example 5: herbicidal effect by foliage application, plastic box (Table 20, symbol P); format: in vivo, common chickweed (Stellaria media); settings: amount of applied herbicide 320 g/ha; foliage application after 14-day growth; evaluated three weeks after application
Outline: as §1

wild oat [10] = assay: Test Example 4: herbicidal effect by soil treatment (Table 19, symbol I); format: in vivo, wild oat (Avena fatua); settings: amount of applied herbicide 320 g/ha
Outline: as §2

blackgrass [11] = assay: Test Example 4: herbicidal effect by soil treatment (Table 19, symbol J); format: in vivo, blackgrass (Alopecurus myosuroides); settings: amount of applied herbicide 320 g/ha
Outline: as §2

redroot pigweed [12] = assay: Test Example 4: herbicidal effect by soil treatment (Table 19, symbol N); format: in vivo, redroot pigweed (Amaranthus retroflexus); settings: amount of applied herbicide 320 g/ha
Outline: as §2

rice flat sedge = assay: Test Example 3: herbicidal effect by foliage application, Wagner pot (Table 18, symbol E); format: in vivo, rice flat sedge (Cyperus iria)
Outline: as §3

persian speedwell [13] = assay: Test Example 4: herbicidal effect by soil treatment (Table 19, symbol R); format: in vivo, Persian speedwell (Veronica persica); settings: amount of applied herbicide 320 g/ha
Outline: as §2

windgrass [14] = assay: Test Example 4: herbicidal effect by soil treatment (Table 19, symbol L); format: in vivo, windgrass (Apera spica-venti); settings: amount of applied herbicide 320 g/ha
Outline: as §2

Chinese sprangletop = assay: Test Example 3: herbicidal effect by foliage application, Wagner pot (Table 18, symbol D); format: in vivo, chinese sprangletop (Leptochloa chinensis)
Outline: as §3

lambsquarters [15] = assay: Test Example 5: herbicidal effect by foliage application, plastic box (Table 20, symbol O); format: in vivo, lambsquarters (Chenopodium album)
Outline: as §1

windgrass [16] = assay: Test Example 5: herbicidal effect by foliage application, plastic box (Table 20, symbol L); format: in vivo, windgrass (Apera spica-venti)
Outline: as §1

green foxtail [17] = assay: Test Example 4: herbicidal effect by soil treatment (Table 19, symbol G); format: in vivo, green foxtail (Setaria viridis); settings: amount of applied herbicide 320 g/ha
Outline: as §2

velvetleaf [18] = assay: Test Example 4: herbicidal effect by soil treatment (Table 19, symbol M); format: in vivo, velvetleaf (Abutilon theophrasti); settings: amount of applied herbicide 320 g/ha
Outline: as §2

barnyard grass [19] = assay: Test Example 4: herbicidal effect by soil treatment (Table 19, symbol H); format: in vivo, barnyard grass (Echinochloa crus-galli); settings: amount of applied herbicide 320 g/ha
Outline: as §2

lambsquarters [20] = assay: Test Example 4: herbicidal effect by soil treatment (Table 19, symbol O); format: in vivo, lambsquarters (Chenopodium album); settings: amount of applied herbicide 320 g/ha
Outline: as §2

Italian ryegrass [21] = assay: Test Example 5: herbicidal effect by foliage application, plastic box (Table 20, symbol K); format: in vivo, Italian ryegrass (Lolium multiflorum)
Outline: as §1

blackgrass [22] = assay: Test Example 5: herbicidal effect by foliage application, plastic box (Table 20, symbol J); format: in vivo, blackgrass (Alopecurus myosuroides)
Outline: as §1

green foxtail [23] = assay: Test Example 5: herbicidal effect by foliage application, plastic box (Table 20, symbol G); format: in vivo, green foxtail (Setaria viridis)
Outline: as §1

southern crabgrass [24] = assay: Test Example 5: herbicidal effect by foliage application, plastic box (Table 20, symbol F); format: in vivo, southern crabgrass (Digitaria ciliaris)
Outline: as §1

velvetleaf [25] = assay: Test Example 5: herbicidal effect by foliage application, plastic box (Table 20, symbol M); format: in vivo, velvetleaf (Abutilon theophrasti)
Outline: as §1

Japanese bulrush = assay: Test Example 1: herbicidal activity, application before weed generation under submerged conditions (Table 16, symbol B); format: in vivo, Japanese bulrush (Schoenoplectus juncoides)
From the text: (§4) [Test Example 1] Herbicidal Activity Test by Application before Weed Generation under Submerged Conditions After alluvial soil was placed into 1/10000 are of Wagner pot, water was poured and mixed to form a submerged condition having a water depth of 4 cm. Seeds of late watergrass, Japanese bulrush, and oval-leafed pondweed were sowed in a mixed manner in the aforementioned pot, and then 2.5 leaf stage rice plant seedlings were transplanted thereto. On the day of sowing seeds, the emulsion agent of the compound of the present invention prepared according to Formulation Example 2 was diluted with water so as to achieve a predetermined herbicide amount, and the diluted emulsion agent was applied to the surface of the water. The pot was placed in a greenhouse at 25° C. to 30° C. for growth of the plants. Three weeks after the herbicide application, the effect of the herbicide on each plant was evaluated according to the following criteria. Evaluation Criteria 5: Herbicidal rate of 90% or more (almost completely withered) 4: Herbicidal rate of 70% or more and less than 90% 3: Herbicidal rate of 40% or more and less than 70% 2: Herbicidal rate of 20% or more and less than 40% 1: Herbicidal rate of 5% or more and less than 20% 0: Herbicidal rate of 5% or less (almost no effect)

late watergrass = assay: Test Example 1: herbicidal activity, application before weed generation under submerged conditions (Table 16, symbol A); format: in vivo, late watergrass (Echinochloa oryzicola)
From the text: as §4

oval-leafed pondweed = assay: Test Example 1: herbicidal activity, application before weed generation under submerged conditions (Table 16, symbol C); format: in vivo, oval-leafed pondweed (Monochoria vaginalis); settings: amount of applied herbicide 370 g/ha
From the text: as §4

[26] = amount of applied herbicide 320 g/ha, foliage application after 14-day growth, evaluated three weeks after application
[27] = foliage application, 320 g/ha, three weeks after application
[28] = amount of applied herbicide 320 g/ha
[29] = amount of applied herbicide 370 g/ha

COc1cc(F)ccc1-c1sc2cc(Cl)c(Cl)cc2c1-c1c(O)c(C)nn(C)c1=O [5-051]
Herbicidal effect by foliage application, I: wild oat (wild oat [1]; [26]): 0 (Herbicidal rate of 5% or less (almost no effect)) | Herbicidal effect by foliage application, H: barnyard grass (barnyard grass [2]; [26]): 3 (Herbicidal rate of 40% or more and less than 70%) | Herbicidal effect by foliage application, N: redroot pigweed (redroot pigweed [3]): 3 (Herbicidal rate of 40% or more and less than 70%) | F: southern crabgrass, herbicidal effect grade (southern crabgrass [4]): 0 (Herbicidal rate of 5% or less (almost no effect)) | P: chickweed, herbicidal effect grade (chickweed [5]): 1 (Herbicidal rate of 5% or more and less than 20%) | K: Italian ryegrass, herbicidal effect grade (Italian ryegrass [6]): 0 (Herbicidal rate of 5% or less (almost no effect)) | Herbicidal effect by foliage application, R: persian speedwell (persian speedwell [7]; [26]): 3 (Herbicidal rate of 40% or more and less than 70%) | herbicidal effect on barnyard grass (H) (barnyard grass [8]; 320 g/ha): 4 (Herbicidal rate of 70% or more and less than 90%) | Herbicidal effect by foliage application, P: chickweed (chickweed [9]): 5 (Herbicidal rate of 90% or more (almost completely withered)) | I: wild oat, herbicidal effect grade (wild oat [10]): 0 (Herbicidal rate of 5% or less (almost no effect)) | J: blackgrass, herbicidal effect grade (blackgrass [11]): 0 (Herbicidal rate of 5% or less (almost no effect)) | N: redroot pigweed, herbicidal effect grade (redroot pigweed [12]): 1 (Herbicidal rate of 5% or more and less than 20%) | herbicidal effect on rice flat sedge (E) (rice flat sedge; 320 g/ha): 3 (Herbicidal rate of 40% or more and less than 70%) | R: persian speedwell, herbicidal effect grade (persian speedwell [13]): 0 (Herbicidal rate of 5% or less (almost no effect)) | L: windgrass, herbicidal effect grade (windgrass [14]): 0 (Herbicidal rate of 5% or less (almost no effect)) | herbicidal effect on Chinese sprangletop (D) (Chinese sprangletop; 320 g/ha): 3 (Herbicidal rate of 40% or more and less than 70%) | Herbicidal effect by foliage application, O: lambsquarters (lambsquarters [15]; [26]): 3 (Herbicidal rate of 40% or more and less than 70%) | Herbicidal effect by foliage application, L: windgrass (windgrass [16]; [26]): 4 (Herbicidal rate of 70% or more and less than 90%) | G: green foxtail, herbicidal effect grade (green foxtail [17]): 2 (Herbicidal rate of 20% or more and less than 40%) | M: velvetleaf, herbicidal effect grade (velvetleaf [18]): 0 (Herbicidal rate of 5% or less (almost no effect)) | H: barnyard grass, herbicidal effect grade (barnyard grass [19]): 0 (Herbicidal rate of 5% or less (almost no effect)) | O: lambsquarters, herbicidal effect grade (lambsquarters [20]): 4 (Herbicidal rate of 70% or more and less than 90%) | Herbicidal effect by foliage application, K: Italian ryegrass (Italian ryegrass [21]; [26]): 0 (Herbicidal rate of 5% or less (almost no effect)) | Herbicidal effect by foliage application, J: blackgrass (blackgrass [22]; [26]): 5 (Herbicidal rate of 90% or more (almost completely withered)) | Herbicidal effect by foliage application, G: green foxtail (green foxtail [23]; [26]): 4 (Herbicidal rate of 70% or more and less than 90%) | Herbicidal effect by foliage application, F: southern crabgrass (southern crabgrass [24]; [26]): 2 (Herbicidal rate of 20% or more and less than 40%) | Herbicidal effect by foliage application, M: velvetleaf (velvetleaf [25]; [26]): 5 (Herbicidal rate of 90% or more (almost completely withered))

COc1cc2sc(-c3ccccc3OC)c(-c3c(O)c(C)nn(C)c3=O)c2cc1Cl [5-068]
herbicidal effect on wild oat (I) (wild oat [1]; [27]): 0 (Herbicidal rate of 5% or less (almost no effect)) | herbicidal effect on barnyard grass (H) (barnyard grass [2]; [27]): 3 (Herbicidal rate of 40% or more and less than 70%) | herbicidal effect on persian speedwell (R) (persian speedwell [7]; [27]): 2 (Herbicidal rate of 20% or more and less than 40%) | herbicidal effect on barnyard grass (H) (barnyard grass [8]; 320 g/ha): 4 (Herbicidal rate of 70% or more and less than 90%) | Herbicidal effect, B: Japanese bulrush (Japanese bulrush; [28]): 5 (Herbicidal rate of 90% or more (almost completely withered)) | herbicidal effect on rice flat sedge (E) (rice flat sedge; 320 g/ha): 1 (Herbicidal rate of 5% or more and less than 20%) | herbicidal effect on Chinese sprangletop (D) (Chinese sprangletop; 320 g/ha): 0 (Herbicidal rate of 5% or less (almost no effect)) | herbicidal effect on lambsquarters (O) (lambsquarters [15]; [27]): 3 (Herbicidal rate of 40% or more and less than 70%) | Herbicidal effect, A: late watergrass (late watergrass; [28]): 0 (Herbicidal rate of 5% or less (almost no effect)) | herbicidal effect on windgrass (L) (windgrass [16]; [27]): 0 (Herbicidal rate of 5% or less (almost no effect)) | herbicidal effect on Italian ryegrass (K) (Italian ryegrass [21]; [27]): 0 (Herbicidal rate of 5% or less (almost no effect)) | herbicidal effect on blackgrass (J) (blackgrass [22]; [27]): 0 (Herbicidal rate of 5% or less (almost no effect)) | herbicidal effect on green foxtail (G) (green foxtail [23]; [27]): 3 (Herbicidal rate of 40% or more and less than 70%) | herbicidal effect on southern crabgrass (F) (southern crabgrass [24]; [27]): 1 (Herbicidal rate of 5% or more and less than 20%) | herbicidal effect on velvetleaf (M) (velvetleaf [25]; [27]): 1 (Herbicidal rate of 5% or more and less than 20%)

CCCC(=O)Oc1c(C)nn(C)c(=O)c1-c1c(-c2ccccc2OCC)sc2cc(OC)c(-c3ccccc3OCC)cc12 [5-080]
herbicidal effect on barnyard grass (H) (barnyard grass [8]; 370 g/ha): 3 (Herbicidal rate of 40% or more and less than 70%) | Herbicidal effect, C: oval-leafed pondweed (oval-leafed pondweed): 0 (Herbicidal rate of 5% or less (almost no effect)) | Herbicidal effect, B: Japanese bulrush (Japanese bulrush; [29]): 3 (Herbicidal rate of 40% or more and less than 70%) | herbicidal effect on rice flat sedge (E) (rice flat sedge; 370 g/ha): 2 (Herbicidal rate of 20% or more and less than 40%) | herbicidal effect on Chinese sprangletop (D) (Chinese sprangletop; 370 g/ha): 3 (Herbicidal rate of 40% or more and less than 70%) | Herbicidal effect, A: late watergrass (late watergrass; [29]): 0 (Herbicidal rate of 5% or less (almost no effect))
